# Results from US7547727B2, “Therapeutic cyclopentane derivatives” (Allergan, Inc., priority 2006, dated 2009).
# Key:
# human EP2 receptors = biological target: T1, human EP2 receptors (Homo sapiens, UniProt P43116); assay: Competition radioligand binding, EP2; settings: HEK 293 cells stably expressing human EP2 receptors, [3H]PGE2
# T1 construct: expressed in transfected cells; host or cells: HEK 293 (membranes or whole cells)
# Method: Competition binding experiments were performed in a medium containing Hank's balanced salt solution, Hepes 20 mM, pH 7.3, membranes (˜60 μg protein) or 2×10^5 cells from HEK 293 cells stably expressing human EP2 receptors, [^3H]PGE2 (10 nM) and various concentrations of test compounds in a total volume of 300 μl. Reaction mixtures were incubated at 23° C. for 60 min, and were filtered over Whatman GF/B filters under vacuum. Filters were washed three times with 5 ml ice-cold buffer containing 50 mM Tris/HCl (pH 7.3). Non-specific binding was estimated in the presence of excess unlabeled PGE2 (10 μM). Binding data fitted to the binding model for a single class of binding sites, using nonlinear regression analysis. IC50 values thus obtained were converted to Ki using the equation of Ki=(IC50/(1+[L]/KD) where [L] represents PGE2 concentration (10 nM) and KD the dissociation constant for [^3H]PGE2 at human EP2 receptors (40 nM). […]
# The cell homogenate was centrifuged at 19000 r.p.m. for 20 min at 4° C. using a Beckman Ti-60 rotor. The resultant pellet was resuspended in TME buffer to give a final 1 mg/ml protein concentration, as determined by Biorad assay. […]
# [^3H-] […] 17-phenyl PGF2α and non-specific binding determined with 10^−5M of unlabeled PGE2, or 17-phenyl PGF2α, according to receptor subtype studied.
# EP4 receptors = biological target: T2, EP4 receptors (Homo sapiens, UniProt P35408); assay: Radioligand binding, EP4; settings: HEK-293 cells stably expressing EP4 receptors, [3H]PGE2
# T2 construct: expressed in transfected cells; host or cells: HEK-293 (plasma membrane fraction)
# Method: HEK-293 cells stably expressing the human or feline FP receptor, or EP1, EP2, or EP4 receptors were washed with TME buffer, scraped from the bottom of the flasks, and homogenized for 30 sec using a Brinkman PT 10/35 polytron. TME buffer was added to achieve a final 40 ml volume in the centrifuge tubes (the composition of TME is 100 mM TRIS base, 20 mM MgCl2, […]; 10N HCl is added to achieve a pH of 7.4).
# The cell homogenate was centrifuged at 19000 r.p.m. for 20 min at 4° C. using a Beckman Ti-60 rotor. The resultant pellet was resuspended in TME buffer to give a final 1 mg/ml protein concentration, as determined by Biorad assay. Radioligand binding competition assays vs. [^3H-]17-phenyl PGF2α (5 nM) were performed in a 100 μl volume for 60 min. Binding reactions were started by adding plasma membrane fraction. The reaction was terminated by the addition of 4 ml ice-cold TRIS-HCl buffer and rapid filtration through glass fiber GF/B filters using a Brandel cell harvester. The filters were washed 3 times with ice-cold buffer and oven dried for one hour.
# [^3H-] PGE2 (specific activity 180 Ci mmol) was used as the radioligand for EP receptors. [^3H] 17-phenyl PGF2α was employed for FP receptor binding studies. […] 17-phenyl PGF2α and non-specific binding determined with 10^−5M of unlabeled PGE2, or 17-phenyl PGF2α, according to receptor subtype studied.
# hFP = biological target: T3, hFP (Homo sapiens, UniProt P43088); assay: FLIPR calcium signal, FP; assay type: cell-based; settings: HEK-293(EBNA) cells
# T3 construct: expressed in transfected cells; host or cells: HEK-293(EBNA)
# Method: (§1) HEK-293(EBNA) cells, stably expressing one type or subtype of recombinant human prostaglandin receptors (prostaglandin receptors expressed: hDP/Gqs5; hEP1; hEP2/Gqs5; hEP3A/Gqi5; hEP4/Gqs5; hFP; hIP; hTP), were cultured in 100 mm culture dishes in high-glucose DMEM medium containing 10% fetal bovine serum, 2 mM I-glutamine, 250 μg/ml geneticin (G418) and 200 μg/ml hygromycin B as selection markers, and 100 units/ml penicillin G, 100 μg/ml streptomycin and 0.25 μg/ml amphotericin B.
# (§2) Cells were seeded at a density of 5×10^4 cells per well in Biocoat® Poly-D-lysine-coated black-wall, clear-bottom 96-well plates (Becton-Dickinson) and allowed to attach overnight in an incubator at 37° C. Cells were then washed two times with HBSS-HEPES buffer (Hanks Balanced Salt Solution without bicarbonate and phenol red, 20 mM HEPES, pH 7.4) using a Denley Cellwash plate washer (Labsystems). […]
# (§3) Cells were excited with an Argon laser at 488 nm, and emission was measured through a 510-570 nm bandwidth emission filter (FLIPR™, Molecular Devices, Sunnyvale, Calif.). […] The peak increase in fluorescence intensity was recorded for each well. […] The peak fluorescence change in each drug-containing well was then expressed relative to the controls. […]
# hEP1 = biological target: T4, hEP1 (Homo sapiens, UniProt P34995); assay: FLIPR calcium signal, EP1; assay type: cell-based; settings: HEK-293(EBNA) cells
# T4 construct: expressed in transfected cells; host or cells: HEK-293(EBNA)
# T4 sequence (P34995 1-402): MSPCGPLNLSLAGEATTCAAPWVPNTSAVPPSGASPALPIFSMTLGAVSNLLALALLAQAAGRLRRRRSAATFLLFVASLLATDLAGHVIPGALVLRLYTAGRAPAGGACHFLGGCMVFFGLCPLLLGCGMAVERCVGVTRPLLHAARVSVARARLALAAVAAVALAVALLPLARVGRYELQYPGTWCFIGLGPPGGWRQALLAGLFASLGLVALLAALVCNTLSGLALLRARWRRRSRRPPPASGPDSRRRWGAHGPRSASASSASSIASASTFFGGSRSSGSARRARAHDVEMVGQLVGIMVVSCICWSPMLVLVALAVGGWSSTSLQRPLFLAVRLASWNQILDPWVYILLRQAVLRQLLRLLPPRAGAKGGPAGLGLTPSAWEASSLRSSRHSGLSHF
# Method: as §1, §2, §3
# hEP2/Gqs5 = biological target: T5, hEP2/Gqs5 (Homo sapiens, UniProt P43116); assay: FLIPR calcium signal, EP2; assay type: cell-based; settings: HEK-293(EBNA) cells, read-out: Ca2+ Signal-EC50(nM) EP2
# T5 construct: expressed in transfected cells; host or cells: HEK-293(EBNA)
# Method: as §1, §2, §3
# hEP3A/Gqi5 = biological target: T6, hEP3A/Gqi5 (Homo sapiens, UniProt P43115); assay: FLIPR calcium signal, EP3; assay type: cell-based; settings: HEK-293(EBNA) cells, read-out: Ca2+ Signal-EC50(nM) EP3
# T6 construct: expressed in transfected cells; host or cells: HEK-293(EBNA)
# T6 sequence (P43115 1-390): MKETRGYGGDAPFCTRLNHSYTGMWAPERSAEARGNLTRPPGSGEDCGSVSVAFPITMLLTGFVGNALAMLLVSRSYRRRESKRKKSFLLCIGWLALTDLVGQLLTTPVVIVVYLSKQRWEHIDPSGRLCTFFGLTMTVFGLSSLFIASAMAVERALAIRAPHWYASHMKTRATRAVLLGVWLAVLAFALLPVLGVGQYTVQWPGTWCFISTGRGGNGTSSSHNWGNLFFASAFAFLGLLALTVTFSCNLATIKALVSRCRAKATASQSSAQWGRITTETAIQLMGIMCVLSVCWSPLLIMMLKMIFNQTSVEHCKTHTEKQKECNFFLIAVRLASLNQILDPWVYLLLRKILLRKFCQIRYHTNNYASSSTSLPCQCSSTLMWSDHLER
# Method: as §1, §2, §3
# hEP4/Gqs5 = biological target: T7, hEP4/Gqs5 (Homo sapiens, UniProt P35408); assay: FLIPR calcium signal, EP4; assay type: cell-based; settings: HEK-293(EBNA) cells
# T7 construct: expressed in transfected cells; host or cells: HEK-293(EBNA)
# Method: as §1, §2, §3
# hTP = biological target: T8, hTP (Homo sapiens, UniProt P21731); assay: FLIPR calcium signal, TP; assay type: cell-based; settings: HEK-293(EBNA) cells
# T8 construct: expressed in transfected cells; host or cells: HEK-293(EBNA)
# T8 sequence (P21731 1-343): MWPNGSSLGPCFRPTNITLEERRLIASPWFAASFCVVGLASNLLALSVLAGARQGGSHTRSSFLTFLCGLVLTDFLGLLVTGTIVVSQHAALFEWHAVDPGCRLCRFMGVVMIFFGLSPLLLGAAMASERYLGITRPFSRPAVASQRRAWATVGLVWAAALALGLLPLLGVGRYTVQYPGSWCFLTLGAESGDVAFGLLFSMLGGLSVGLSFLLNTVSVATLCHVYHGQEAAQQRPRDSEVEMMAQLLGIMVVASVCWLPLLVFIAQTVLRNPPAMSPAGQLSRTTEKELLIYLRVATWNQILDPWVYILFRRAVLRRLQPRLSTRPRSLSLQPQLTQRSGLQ
# Method: as §1, §2, §3
# hIP = biological target: T9, hIP (Homo sapiens, UniProt P43119); assay: FLIPR calcium signal, IP; assay type: cell-based; settings: HEK-293(EBNA) cells
# T9 construct: expressed in transfected cells; host or cells: HEK-293(EBNA)
# Method: as §1, §2, §3
# hDP/Gqs5 = biological target: T10, hDP/Gqs5 (Homo sapiens, UniProt Q13258); assay: FLIPR calcium signal, DP; assay type: cell-based; settings: HEK-293(EBNA) cells
# T10 construct: expressed in transfected cells; host or cells: HEK-293(EBNA)
# T10 sequence (Q13258 1-359): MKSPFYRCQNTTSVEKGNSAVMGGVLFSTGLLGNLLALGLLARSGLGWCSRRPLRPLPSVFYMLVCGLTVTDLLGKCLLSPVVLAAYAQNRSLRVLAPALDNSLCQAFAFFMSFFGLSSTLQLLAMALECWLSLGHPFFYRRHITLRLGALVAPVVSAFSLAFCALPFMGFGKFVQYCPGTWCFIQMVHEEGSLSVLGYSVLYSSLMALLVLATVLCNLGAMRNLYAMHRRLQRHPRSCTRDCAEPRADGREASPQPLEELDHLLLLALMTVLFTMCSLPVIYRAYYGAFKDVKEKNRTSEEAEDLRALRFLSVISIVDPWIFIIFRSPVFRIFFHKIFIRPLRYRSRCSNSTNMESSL
# Method: as §1, §2, §3
# T3 sequence (P43088 whole entry): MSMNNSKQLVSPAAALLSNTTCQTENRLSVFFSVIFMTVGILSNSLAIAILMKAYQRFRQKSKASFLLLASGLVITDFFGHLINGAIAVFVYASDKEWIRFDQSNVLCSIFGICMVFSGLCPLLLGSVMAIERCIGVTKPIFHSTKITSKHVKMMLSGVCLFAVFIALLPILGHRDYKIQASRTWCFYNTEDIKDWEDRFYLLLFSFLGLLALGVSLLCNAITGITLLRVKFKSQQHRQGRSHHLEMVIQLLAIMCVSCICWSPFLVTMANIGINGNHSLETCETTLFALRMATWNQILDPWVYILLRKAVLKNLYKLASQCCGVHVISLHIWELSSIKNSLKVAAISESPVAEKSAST
# T2 sequence (P35408 whole entry): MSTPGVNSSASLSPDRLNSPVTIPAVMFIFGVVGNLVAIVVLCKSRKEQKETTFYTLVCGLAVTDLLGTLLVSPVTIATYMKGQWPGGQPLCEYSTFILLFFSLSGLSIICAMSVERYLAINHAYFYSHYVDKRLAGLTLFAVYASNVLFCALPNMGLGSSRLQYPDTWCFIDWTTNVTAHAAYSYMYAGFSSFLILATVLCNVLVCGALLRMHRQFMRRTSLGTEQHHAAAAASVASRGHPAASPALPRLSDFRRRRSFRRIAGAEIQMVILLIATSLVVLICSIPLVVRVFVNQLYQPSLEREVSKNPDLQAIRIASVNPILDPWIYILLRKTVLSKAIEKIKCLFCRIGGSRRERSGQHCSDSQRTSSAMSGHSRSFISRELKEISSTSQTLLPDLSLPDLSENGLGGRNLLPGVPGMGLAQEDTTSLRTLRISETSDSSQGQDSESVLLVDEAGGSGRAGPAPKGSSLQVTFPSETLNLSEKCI
# T7 sequence (P35408 whole entry): as above
# T9 sequence (P43119 whole entry): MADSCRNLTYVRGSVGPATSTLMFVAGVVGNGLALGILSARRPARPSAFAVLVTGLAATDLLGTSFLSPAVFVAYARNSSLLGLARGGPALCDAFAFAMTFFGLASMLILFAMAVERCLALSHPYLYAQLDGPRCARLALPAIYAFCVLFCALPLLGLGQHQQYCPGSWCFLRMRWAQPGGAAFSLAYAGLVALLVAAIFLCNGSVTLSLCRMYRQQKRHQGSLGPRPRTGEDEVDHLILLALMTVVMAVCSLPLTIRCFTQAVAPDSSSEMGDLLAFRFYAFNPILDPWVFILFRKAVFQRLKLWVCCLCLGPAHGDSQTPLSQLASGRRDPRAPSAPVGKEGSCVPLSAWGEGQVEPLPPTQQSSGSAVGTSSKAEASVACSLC
# T1 sequence (P43116 whole entry): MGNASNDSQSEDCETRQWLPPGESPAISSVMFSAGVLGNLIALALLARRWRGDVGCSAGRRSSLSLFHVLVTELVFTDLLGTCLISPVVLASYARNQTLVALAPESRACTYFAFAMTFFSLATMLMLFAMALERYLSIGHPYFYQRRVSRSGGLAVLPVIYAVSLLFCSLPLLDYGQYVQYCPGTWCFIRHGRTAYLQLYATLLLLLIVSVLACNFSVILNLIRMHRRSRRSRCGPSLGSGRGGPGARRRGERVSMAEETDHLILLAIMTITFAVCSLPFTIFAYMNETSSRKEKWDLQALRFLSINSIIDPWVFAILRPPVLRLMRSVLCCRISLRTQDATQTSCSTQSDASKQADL
# T5 sequence (P43116 whole entry): as above
smiles,measurement,setting,value
"CCCCCC(O)c1ccc([C@@H]2[C@@H](C/C=C\CCCC(=O)O)[C@H](C#N)C[C@H]2O)cc1 (stereo partly drawn) [(Z)-7-{(1S,2S,3R,5R)-5-Cyano-3-hydroxy-2-[4-(1-hydroxy-hexyl)-phenyl]-cyclopentyl}-hept-5-enoic acid]",Ki,human EP2 receptors,1250 nM
same,Ki,EP4 receptors,> 10000 nM
same,Ca2+ Signal-EC50(nM) FP,hFP,not active
same,Ca2+ Signal-EC50(nM) EP1,hEP1,not active
same,EC50,hEP2/Gqs5,34 nM
same,EC50,hEP3A/Gqi5,10000 nM
same,Ca2+ Signal-EC50(nM) EP4,hEP4/Gqs5,not active
same,Ca2+ Signal-EC50(nM) TP,hTP,not active
same,Ca2+ Signal-EC50(nM) IP,hIP,not active
same,Ca2+ Signal-EC50(nM) DP,hDP/Gqs5,not active
